We go through 25 compounds from US20170247326A1, “Substituted Pyrrolidine Carboxamide Compounds” (EPIZYME, INC., priority 2014, published 2017).

Each structure is given as a SMILES string.

For one experiment, the target named is T1, SMYD2 (Homo sapiens, UniProt Q9NRG4).
T1 construct: Full length SMYD2 (NP_064582.2) was cloned; His6 (N, cleaved yes); FLAG (N); made in house; host or cells: Sf9 insect cells
T1 sequence (Q9NRG4 whole entry): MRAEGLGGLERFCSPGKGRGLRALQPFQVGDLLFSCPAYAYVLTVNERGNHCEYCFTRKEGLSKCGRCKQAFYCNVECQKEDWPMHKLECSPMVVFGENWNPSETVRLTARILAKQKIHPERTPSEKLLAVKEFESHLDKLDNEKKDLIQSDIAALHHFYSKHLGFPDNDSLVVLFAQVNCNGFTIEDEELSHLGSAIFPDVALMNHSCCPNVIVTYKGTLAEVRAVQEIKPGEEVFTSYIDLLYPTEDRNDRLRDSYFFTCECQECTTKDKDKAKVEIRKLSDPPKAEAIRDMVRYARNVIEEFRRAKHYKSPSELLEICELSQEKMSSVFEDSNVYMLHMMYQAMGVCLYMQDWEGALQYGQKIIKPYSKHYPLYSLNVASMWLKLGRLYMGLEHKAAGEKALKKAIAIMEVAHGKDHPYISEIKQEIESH
The experiment in a line: SMYD2 biochemical assay (3H-SAM, biotinylated peptide substrate, Flashplate). The settings on record: Table 1; average of n = 1 to n = 50; read-out: SMYD2 Biochem IC50. The text has this:
S-adenosylmethionine (SAM), S-adenosylhomocysteine (SAH), bicine, Tween20, dimethylsulfoxide (DMSO), bovine skin gelatin (BSG), and Tris(2-carboxyethyl)phosphine hydrochloride (TCEP) were purchased from Sigma-Aldrich at the highest level of purity possible. ^3H-SAM was purchase from American Radiolabeled Chemicals with a specific activity of 80 Ci/mmol. 384-well streptavidin Flashplates were purchased from PerkinElmer.
Peptide was synthesized with a N-terminal linker-affinity tag motif and a C-terminal amide cap by 21st Century Biochemicals. The peptide was high high-performance liquid chromatography (HPLC) purified to greater than 95% purity and confirmed by liquid chromatography mass spectrometry (LC-MS). The sequence was […](K-Biot)-amide. (SEQ ID NO: 3)
Full length SMYD2 (NP_064582.2) was cloned into a pFastbac-Htb-lic vector with an N-terminal His6 tag and FLAG tag, preceded by a TEV protease cleavage site. The protein was expressed in Sf9 insect cells. Cells were resuspended in lysis buffer (25 mM HEPES-NaOH, pH 7.5, 200 mM NaCl, 5% glycerol, and 5 mM […] and lysed by sonication. The protein was purified by Ni-NTA (Qiagen), followed by TEV cleavage to remove the His6 tag, subtractive Ni-NTA (Qiagen), and gel filtration chromatography using an S200 column (GE Healthcare). Purified protein was stored in 20 mM Tris-HCl, pH 8.0, 100 mM NaCl, and 1 mM TCEP.
General Procedure for SMYD2 Enzyme Assays on Peptide Substrates
The assays were all performed in a buffer consisting of 20 mM Bicine (pH=7.6), 1 mM TCEP, 0.005% Bovine Skin Gelatin, and 0.002% Tween20, prepared on the day of use. Compounds in 100% DMSO (1 ul) were spotted into a polypropylene 384-well V-bottom plates (Greiner) using a Platemate Plus outfitted with a 384-channel head (Thermo Scientific). DMSO (1 ul) was added to Columns 11, 12, 23, 24, rows A-H for the maximum signal control and 1 ul of SAH, a known product and inhibitor of SMYD2, was added to columns 11, 12, 23, 24, rows I-P for the minimum signal control. A cocktail (40 ul) containing the SMYD2 enzyme was added by Multidrop Combi (Thermo-Fisher). The compounds were allowed to incubate with SMYD2 for 30 min at room temperature, then a cocktail (10 ul) containing ^3H-SAM and peptide was added to initiate the reaction (final volume=51 ul). The final concentrations of the components were as follows: SMYD2 was 1.5 nM, ^3H-SAM was 10 nM, and peptide was 60 nM, SAH in the minimum signal control wells was 1000 uM, and the DMSO concentration was 2%. The assays were stopped by the addition of non-radioactive SAM (10 ul) to a final concentration of 600 uM, which dilutes the ^3H-SAM to a level where its incorporation into the peptide substrate is no longer detectable. 50 ul of the reaction in the 384-well polypropylene plate was then transferred to a 384-well Flashplate and the biotinylated peptides were allowed to bind to the streptavidin surface for at least 1 hour before being washed three times with 0.1% Tween20 in a Biotek ELx405 plate washer. The plates were then read in a PerkinElmer TopCount plate reader to measure the quantity of ^3H-labeled peptide bound to the Flashplate surface, measured as disintegrations per minute (dpm) or alternatively, referred to as counts per minute (cpm).
Where dpm=disintegrations per minute, cmpd=signal in assay well, and min and max are the respective minimum and maximum signal controls.
Where top and bottom are the normally allowed to float, but may be fixed at 100 or 0 respectively in a 3-parameter fit. The Hill Coefficient normally allowed to float but may also be fixed at 1 in a 3-parameter fit. I is the compound concentration.
SMYD2 biochemical assay data for representative Compounds of the Disclosure are presented in Tables 1, 3, and 4 in the column titled “SMYD2 Bicohem IC50 (μM).”
Take `C[C@H]1CN(C2CC2)C[C@@H]1NC(=O)c1cn(C2CC2)nn1` (racemic) [compound 18, (±)-trans-1-cyclopropyl-N-(1-cyclopropyl-4-methylpyrrolidin-3-yl)-1H-1,2,3-triazole-4-carboxamide]: the IC50 turned out to be 13.2 µM.
The same measure, in the same setting: for `Cc1cc(C(=O)N[C@@H]2CN(C3CC3)C[C@@H]2C)n(Cc2ccccc2)n1` (racemic) [compound 10, (±)-cis-1-benzyl-N-(1-cyclopropyl-4-methylpyrrolidin-3-yl)-3-methyl-1H-pyrazole-5-carboxamide] the value was more than 50 µM.
In the case of `C[C@H]1CN(C2CC2)C[C@@H]1NC(=O)c1ccc2[nH]c(=O)oc2c1` (racemic) [compound 13, (±)-trans-N-(1-cyclopropyl-4-methylpyrrolidin-3-yl)-2-oxo-2,3-dihydrobenzo[d]oxazole-6-carboxamide], the IC50 is more than 50 µM.
For `C[C@H]1CN(C2CC2)C[C@H]1NC(=O)Cc1ccc2c(c1)NC(=O)CO2` (racemic) [compound 4, (±)-cis-N-(1-cyclopropyl-4-methylpyrrolidin-3-yl)-2-(3-oxo-3,4-dihydro-2H-benzo[b][1,4]oxazin-6-yl)acetamide], the IC50 is more than 50 µM.
Same read-out and setting: in the case of `CC1Oc2ccc(C(=O)N[C@@H]3CN(C4CC4)C[C@@H]3C)cc2NC1=O` (mixture of isomers) [compound 8, (±)-cis-N-(1-cyclopropyl-4-methylpyrrolidin-3-yl)-2-methyl-3-oxo-3,4-dihydro-2H-benzo[b][1,4]oxazine-6-carboxamide] it was more than 50 µM; in that of `C[C@H]1CN(C2CC2)C[C@@H]1NC(=O)c1ccc(N2CCCC2)cc1` (racemic) [compound 20, (±)-trans-N-(1-cyclopropyl-4-methylpyrrolidin-3-yl)-4-(pyrrolidin-1-yl)benzamide], more than 50 µM.
With `CCc1cc(C(=O)N[C@@H]2CN(C3CC3)C[C@@H]2C)ns1` (racemic) [compound 12, (±)-cis-N-(1-cyclopropyl-4-methylpyrrolidin-3-yl)-5-ethylisothiazole-3-carboxamide], the IC50 was 7.1 µM.
As for `CCc1cc(C(=O)N[C@H]2CN(C3CC3)C[C@@H]2C)ns1` (racemic) [compound 11, (±)-trans-N-(1-cyclopropyl-4-methylpyrrolidin-3-yl)-5-ethylisothiazole-3-carboxamide], the IC50 is more than 50 µM.

The experiment is the same for the next values; noted with them: Table 3; average of n = 1 to n = 50; read-out: SMYD2 Biochem IC50.
Regarding `CC(C)N1C[C@@H](C)[C@H](NC(=O)c2noc(C3CC3)n2)C1` (racemic) [compound 39, (±)-trans-5-cyclopropyl-N-[4-methyl-1-(propan-2-yl)pyrrolidin-3-yl]-1,2,4-oxadiazole-3-carboxamide], the IC50 was more than 50 µM.
Regarding `C[C@@H]1CN(Cc2ccc(OCc3ccccc3)cc2)C[C@H]1NC(=O)c1cn(C2CC2)nn1` (racemic) [compound 97, (±)-trans-N-(1-{[4-(benzyloxy)phenyl]methyl}-4-methylpyrrolidin-3-yl)-1-cyclopropyl-1H-1,2,3-triazole-4-carboxamide], the IC50 came to 10.5 µM.
As for `CC(C)N1C[C@H](C)[C@H](NC(=O)c2cc(C3CC3)ns2)C1` (racemic) [compound 91, (±)-cis-3-cyclopropyl-N-[4-methyl-1-(propan-2-yl)pyrrolidin-3-yl]-1,2-thiazole-5-carboxamide], the IC50 was more than 50 µM.
Still for that read-out and setting: in the case of `CC(C)N1C[C@H](C)[C@H](NC(=O)CCN2CCCC2)C1` (racemic) [compound 56, (±)-cis-N-[4-methyl-1-(propan-2-yl)pyrrolidin-3-yl]-3-(pyrrolidin-1-yl)propanamide] it was more than 50 µM; in that of `CC(C)N1C[C@@H](C)[C@H](NC(=O)c2c[nH]c(C3CC3)n2)C1` (racemic) [compound 71, (±)-trans-2-cyclopropyl-N-[4-methyl-1-(propan-2-yl)pyrrolidin-3-yl]-1H-imidazole-4-carboxamide], more than 50 µM.
Regarding `CC(C)N1C[C@@H](C)[C@@H](NC(=O)c2cc(C3CC3)cnn2)C1` (stereo in doubt) [compound 101, rel-5-cyclopropyl-N-[(3R,4R)-4-methyl-1-(propan-2-yl)pyrrolidin-3-yl]pyridazine-3-carboxamide], the IC50 was 0.245 µM.
Still for that read-out and setting: for `CC(=O)N[C@@H]1CN(C(C)C)C[C@H]1C` (racemic) [compound 58, (±)-trans-N-[4-methyl-1-(propan-2-yl)pyrrolidin-3-yl]acetamide] the value was more than 50 µM; for `CC(C)N1C[C@H](C)[C@H](NC(=O)c2noc(C3CC3)n2)C1` (racemic) [compound 38, (±)-cis-5-cyclopropyl-N-[4-methyl-1-(propan-2-yl)pyrrolidin-3-yl]-1,2,4-oxadiazole-3-carboxamide], more than 50 µM.
Still for that read-out and setting: for `C[C@H]1CN(C)C[C@H]1NC(=O)c1cc(C2CC2)cnn1` (racemic) [compound 103, (±)-cis-5-cyclopropyl-N-(1,4-dimethylpyrrolidin-3-yl)pyridazine-3-carboxamide] the value was 1.67 µM; for `CC(C)N1C[C@H](NC(=O)c2ccc3c(c2)NC(=O)CO3)[C@@H](C)C1` (racemic) [compound 37, (±)-trans-N-[4-methyl-1-(propan-2-yl)pyrrolidin-3-yl]-3-oxo-3,4-dihydro-2H-1,4-benzoxazine-6-carboxamide], more than 50 µM; for `CC(C)N1C[C@@H](C)[C@H](NC(=O)c2ccc(N3CCCC3)cc2)C1` (racemic) [compound 33, (±)-trans-N-[4-methyl-1-(propan-2-yl)pyrrolidin-3-yl]-4-(pyrrolidin-1-yl)benzamide], more than 50 µM.
Turning to `C[C@@H]1CN(C2CC2)C[C@H]1NC(=O)c1cccc(N2CCCC2)c1` (racemic) [compound 34, (±)-trans-N-[1-cyclopropyl-4-methylpyrrolidin-3-yl]-3-(pyrrolidin-1-yl)benzamide], the IC50 was more than 50 µM.
Turning to `CC(C)N1C[C@@H](C)[C@H](NC(=O)c2nnc(C3CC3)s2)C1` (racemic) [compound 48, (±)-trans-5-cyclopropyl-N-[4-methyl-1-(propan-2-yl)pyrrolidin-3-yl]-1,3,4-thiadiazole-2-carboxamide], the IC50 is 39.5 µM.
For `CC(C)N1CCC(NC(=O)c2cc(C3CC3)cnn2)C1` (stereo not shown) [compound 95, 5-cyclopropyl-N-[1-(propan-2-yl)pyrrolidin-3-yl]pyridazine-3-carboxamide], the IC50 came to 6.07 µM.
In the case of `C[C@@H]1CN(Cc2ccc(OCc3ccccc3)cc2)C[C@@H]1NC(=O)c1cc(C2CC2)cnn1` (racemic) [compound 104, (±)-cis-N-(1-{[4-(benzyloxy)phenyl]methyl}-4-methylpyrrolidin-3-yl)-5-cyclopropylpyridazine-3-carboxamide], the IC50 is 0.0917 µM.
Regarding `CC(C)N1C[C@@H](C)[C@H](NC(=O)c2cnc(C3CC3)o2)C1` (racemic) [compound 70, (±)-trans-2-cyclopropyl-N-[4-methyl-1-(propan-2-yl)pyrrolidin-3-yl]-1,3-oxazole-5-carboxamide], the IC50 is more than 50 µM.

Still in this experiment, the particulars now being: Table 4; average of n = 1 to n = 50; read-out: SMYD2 Biochem IC50.
For the compound `CC(C)N1C[C@H](CO)[C@H](NC(=O)c2cc(C3CC3)cnn2)C1` (racemic) [compound 129, rac-5-cyclopropyl-N-((3R,4R)-4-(hydroxymethyl)-1-isopropylpyrrolidin-3-yl)pyridazine-3-carboxamide], the IC50 was determined as 0.77 µM.

As a reminder, the IC50 is the concentration that gives 50% inhibition.
